Laboratory results: PubChem BioAssay (NCI)
Several values for one entry are separate records, joined by “and”; a condition that tells them apart may be missing. Identical values can stand only once.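 In this assay, cells in 96-well plates receive the compound at five concentrations for 48 hours. Endpoints are linearly interpolated between the surrounding concentrations. GI50 is the concentration that inhibits growth by half. At the TGI there is no net growth.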

Key:
Assay in all cases: growth of human tumour cells (NCI), 48 h
SF-295 CNS = test system: SF-295 CNS
HL-60(TB) leukemia = test system: HL-60(TB) leukemia
UACC-257 melanoma = test system: UACC-257 melanoma
KM12 colon = test system: KM12 colon
COLO 205 colon = test system: COLO 205 colon
DMS 273 small cell lung = test system: DMS 273 small cell lung
CAKI-1 renal = test system: CAKI-1 renal
NCI-H23 lung = test system: NCI-H23 lung
SK-MEL-28 melanoma = test system: SK-MEL-28 melanoma
HOP-18 NSCLC = test system: HOP-18 NSCLC

SMILES | GI50 (SF-295 CNS) [µM] | TGI (SF-295 CNS) [µM] | GI50 (HL-60(TB) leukemia) | GI50 (UACC-257 melanoma) | TGI (UACC-257 melanoma) | GI50 (KM12 colon) | TGI (KM12 colon) | GI50 (COLO 205 colon) | TGI (COLO 205 colon) | GI50 (DMS 273 small cell lung) [µM] | TGI (DMS 273 small cell lung) | TGI (CAKI-1 renal) | GI50 (NCI-H23 lung) [µM] | TGI (NCI-H23 lung) | GI50 (SK-MEL-28 melanoma) | TGI (SK-MEL-28 melanoma) | TGI (HOP-18 NSCLC) | TGI (HL-60(TB) leukemia) | GI50 (CAKI-1 renal) | GI50 (HOP-18 NSCLC)
CC[C@@]1(O)C(=O)OCc2c1cc1n(c2=O)Cc2cc3cc(Cl)ccc3nc2-1 | < 0.001 | 0.0893 | 0.00156 µM and 0.0131 µM | 0.0389 µM and 0.0857 µM | 0.953 µM and 1.11 µM | 0.0485 µM and 0.127 µM | 0.195 µM and 0.446 µM | 0.02 µM and 0.0458 µM | 1.41 µM and 1.47 µM | < 0.001 | 0.0211 µM and 0.14 µM | 1.07 µM and 1.19 µM | 0.00226 | 0.00545 µM and 0.0196 µM | 0.0542 µM and 0.0355 µM | 4.52 µM and 8.65 µM | – | – | – | –
C#CCN(N=O)C(=O)NC(CCCCNC(=O)OCc1ccccc1)C(=O)OCc1ccccc1 (configuration not stated) | – | > 100 | – | – | 79.5 µM | – | > 100 µM | – | 96.6 µM | – | > 100 µM | – | – | > 100 µM | – | 77.6 µM | 44.9 µM | 37.6 µM | – | –
O=S(=O)(C1=CC(S(=O)(=O)c2ccccc2)COC1)c1ccccc1 (configuration not stated) | – | > 100 | – | – | > 100 µM | – | > 100 µM | – | > 100 µM | – | > 100 µM | > 100 µM | – | > 100 µM | – | > 100 µM | – | > 100 µM | – | –
C[C@H]1CCC/C=C/C2CC(OC(=O)CN(C)C)CC2C(OC(=O)CN(C)C)/C=C/C(=O)O1 (some centres not stated) | 1.11 | 37.2 | 0.682 µM | 0.342 µM | 27.5 µM | 0.198 µM | 1.31 µM | 0.246 µM | 3.6 µM | 3.77 | 27.7 µM | 7.69 µM | 0.359 | 1.92 µM | 0.472 µM | > 100 µM | – | 7.47 µM | 0.38 µM | –
NC(Cc1ccccc1)C(=O)OCN1C(=O)C2C3C=CC(C2C1=O)C1C2C(=O)N(COC(=O)C(N)Cc4ccccc4)C(=O)C2C31 (configuration not stated) | – | > 100 | – | – | 67.1 µM and 50.1 µM | – | 40.7 µM and 40.1 µM | – | 32.8 µM and 32.2 µM | – | – | > 100 µM | – | 38.1 µM and 42.7 µM | – | 44.4 µM and 36 µM | > 100 µM and 52.1 µM | 43.5 µM and > 100 µM | 37.8 µM and 77.2 µM | 45.3 µM and 20 µM
CC(Oc1cc2oc(=O)cc(-c3ccccc3)c2cc1Cl)C(=O)O (configuration not stated) | – | > 100 | – | – | > 100 µM | – | > 100 µM | – | > 100 µM | – | – | > 100 µM | – | > 100 µM | – | > 100 µM | > 100 µM | > 100 µM | – | –
c1ccc2c(c1)[nH]c1cnc3c4ncccc4[nH]c3c12 | – | > 100 | – | – | > 100 µM | – | > 100 µM | – | > 100 µM | – | > 100 µM | > 100 µM | – | > 100 µM | – | > 100 µM | – | > 100 µM | – | –
O=C1OC(CC(=O)c2ccc(F)cc2)C(Cl)=C1Cl (configuration not stated) | – | > 100 | – | – | 33.6 µM | – | 33 µM | – | – | – | – | 92.8 µM | – | 93.5 µM | – | > 100 µM | 44.6 µM | 62 µM | – | –
NCCOc1ccc(/C(=C(/Cl)c2ccccc2)c2ccccc2)cc1 | – | 28.9 | – | – | 24.8 µM | – | 16.7 µM | – | 3.59 µM | – | 25.5 µM | 23.2 µM | – | 30.7 µM | – | 18.6 µM | – | 7.61 µM | – | –
CCN(C(=O)N1CCN(c2cc3c(cc2F)c(=O)c(C(=O)O)cn3C2CC2)CC1)c1nc(-c2ccccc2)cs1 | 2.24 | 8.51 | 1.59 µM | 2.83 µM | 7.61 µM | 2.94 µM | > 100 µM | 2.58 µM | 7.1 µM | – | – | 10.3 µM | 2.79 | 29.5 µM | 3 µM | > 100 µM | – | 4.35 µM | 2.58 µM | –
CNC(=O)c1cc(Oc2ccc3nc(NC(=O)Nc4ccc(CN5CCOCC5)c(C(F)(F)F)c4)sc3c2)ccn1 | 1.9 | 4.73 | 2.7 µM | 2.16 µM | 5.59 µM | 0.446 µM | 2.31 µM | 2.1 µM | 4.58 µM | – | – | 6.83 µM | 1.7 | 4.22 µM | 1.8 µM | 4.29 µM | – | 7.41 µM | 2.05 µM | –
CCOC(=O)c1oc2c(OC)ccc3c2c1CCC3 | – | > 100 | – | – | 10.9 µM | – | > 100 µM | – | > 100 µM | – | > 100 µM | – | – | > 100 µM | – | > 100 µM | – | > 100 µM | – | –
Oc1ccc(NC(=S)Nc2ccccc2)cc1 | > 100 | > 100 | > 100 µM | > 100 µM | > 100 µM | > 100 µM | > 100 µM | > 100 µM | > 100 µM | – | – | > 100 µM | > 100 | > 100 µM | > 100 µM | > 100 µM | – | > 100 µM | > 100 µM | –
CCCCCC/C=C/C#CCCCCCCCC(=O)O | – | > 100 | – | – | > 100 µM | – | > 100 µM | – | > 100 µM | – | – | > 100 µM | – | > 100 µM | – | > 100 µM | – | > 100 µM | – | –
